Data: ChEMBL document CHEMBL4613218, “Synthesis, in vitro and in vivo biological evaluation of novel graveolinine derivatives as potential anti-Alzheimer agents” (Bioorg Med Chem, 2020)
The source made the active and inactive calls. The calls are words filed in the database; no cut-off is given here.

Legend:
[1] = target: Amyloid-beta precursor protein (Homo sapiens) (UniProt P05067); assay: Inhibition of self-induced human amyloid beta (1 to 42) peptide aggregation assessed as reduction in number of amyloid beta aggregates at 20 uM measured after 48 hrs by TEM analysis
[2] = target: Amyloid-beta precursor protein (Homo sapiens) (UniProt P05067); assay: Inhibition of self-induced human amyloid beta (1 to 42) peptide aggregation at 20 uM measured after 48 hrs by ThT fluorescence assay relative to control
Acetylcholinesterase = Acetylcholinesterase (Electrophorus electricus, UniProt O42275); assay: Inhibition of electric eel AChE using acetylthiocholine chloride as substrate preincubated for 15 mins followed by substrate addition by Ellman's method
PC-12 = assay: Cytotoxicity against rat PC12 cells assessed as growth inhibition after 48 hrs by MTT assay; assay type: cell-based; details: PC-12, 48 h
[3] = Cytotoxicity against rat PC12 cells assessed as inhibition of cell viability at 10 uM after 48 hrs by MTT assay relative to control; assay type: cell-based, PC-12; details: read-out: INH
[4] = Selectivity index, ratio of IC50 for electric eel AChE to IC50 for equine serum BuChE
HepG2 = assay: Cytotoxicity against human HepG2 cells assessed as growth inhibition after 48 hrs by MTT assay; assay type: cell-based; details: HepG2, 48 h
Cholinesterase = Cholinesterase (Equus caballus, UniProt P81908); assay: Inhibition of equine serum BuChE using butyrylthiocholine chloride as substrate preincubated for 15 mins followed by substrate addition by Ellman's method
[5] = Cytotoxicity against human HepG2 cells assessed as inhibition of cell viability at 10 uM after 48 hrs by MTT assay relative to control; assay type: cell-based; details: read-out: INH
Mus musculus [6] = assay: (§1) Antialzheimer activity against scopolamine-induced cognition deficit ICR mouse model assessed as increase in number of platform crossings at 20 umol/kg, po treated 30 mins prior to scopolamine challenge and measured at 30 mins post-scopolamine challenge on day 15 of probe trial by Morris water maze test; assay type: functional, organism-based
Mus musculus [7] = assay: as §1, with “impairment” for “deficit”, “swimming time in target quadrant” for “number of platform crossings”, “by” for “by Morris”; assay type: functional, organism-based
[8] = target: Acetylcholinesterase (Torpedo californica) (UniProt P04058); assay: Non-competitive inhibition of pacific electric ray AChE pre-incubated with enzyme for 15 mins followed by acetylthiocholine chloride substrate addition by spectrophotometric method based Lineweaver-Burk plot analysis; details: Tetronarce californica
[9] = Toxicity in scopolamine-induced cognition deficit ICR mouse model assessed as effect on total distance travelled at 20 umol/kg, po treated 30 mins prior to scopolamine challenge and measured at 30 mins post-scopolamine challenge on day 15 of probe trial by Morris water maze test; assay type: organism-based; details: in vivo, 0.5 h
Mus musculus [10] = assay: Antialzheimer activity against scopolamine-induced cognition impairment ICR mouse model assessed as mean escape latency time at 20 umol/kg, po treated 30 mins prior to scopolamine challenge and measured at 30 mins post-scopolamine challenge for 4 days of training trial sessions by Morris water maze test (reference value: 59.8 to 62.2 secs); assay type: functional
[11] = Toxicity in scopolamine-induced cognition deficit ICR mouse model assessed as effect on swimming speed at 20 umol/kg, po treated 30 mins prior to scopolamine challenge and measured at 30 mins post-scopolamine challenge on day 15 of probe trial by Morris water maze test; assay type: organism-based; details: in vivo, 0.5 h
Mus musculus [12] = assay: as §1, with “impairment” for “deficit”, “path length in target quadrant” for “number of platform crossings”; assay type: functional, organism-based

Sequence of Acetylcholinesterase (O42275 whole entry): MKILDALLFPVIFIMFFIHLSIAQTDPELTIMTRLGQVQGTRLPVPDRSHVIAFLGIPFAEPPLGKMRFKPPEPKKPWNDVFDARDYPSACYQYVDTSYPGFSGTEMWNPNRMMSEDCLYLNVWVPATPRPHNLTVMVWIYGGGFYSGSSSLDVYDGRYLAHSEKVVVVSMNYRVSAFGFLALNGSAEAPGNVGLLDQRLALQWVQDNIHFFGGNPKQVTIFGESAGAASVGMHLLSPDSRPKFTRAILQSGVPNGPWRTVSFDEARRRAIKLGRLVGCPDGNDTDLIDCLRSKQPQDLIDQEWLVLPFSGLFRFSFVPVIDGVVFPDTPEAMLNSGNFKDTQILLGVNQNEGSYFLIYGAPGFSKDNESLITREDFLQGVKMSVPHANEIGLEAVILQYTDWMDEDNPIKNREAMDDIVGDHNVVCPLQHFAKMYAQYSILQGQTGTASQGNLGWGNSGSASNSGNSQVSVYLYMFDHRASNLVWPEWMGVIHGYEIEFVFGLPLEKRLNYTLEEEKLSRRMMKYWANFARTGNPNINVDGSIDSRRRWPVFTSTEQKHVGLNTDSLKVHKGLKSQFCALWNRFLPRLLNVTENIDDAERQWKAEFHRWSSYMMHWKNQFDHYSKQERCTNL
Sequence of Amyloid-beta precursor protein (Homo sapiens) (P05067 whole entry): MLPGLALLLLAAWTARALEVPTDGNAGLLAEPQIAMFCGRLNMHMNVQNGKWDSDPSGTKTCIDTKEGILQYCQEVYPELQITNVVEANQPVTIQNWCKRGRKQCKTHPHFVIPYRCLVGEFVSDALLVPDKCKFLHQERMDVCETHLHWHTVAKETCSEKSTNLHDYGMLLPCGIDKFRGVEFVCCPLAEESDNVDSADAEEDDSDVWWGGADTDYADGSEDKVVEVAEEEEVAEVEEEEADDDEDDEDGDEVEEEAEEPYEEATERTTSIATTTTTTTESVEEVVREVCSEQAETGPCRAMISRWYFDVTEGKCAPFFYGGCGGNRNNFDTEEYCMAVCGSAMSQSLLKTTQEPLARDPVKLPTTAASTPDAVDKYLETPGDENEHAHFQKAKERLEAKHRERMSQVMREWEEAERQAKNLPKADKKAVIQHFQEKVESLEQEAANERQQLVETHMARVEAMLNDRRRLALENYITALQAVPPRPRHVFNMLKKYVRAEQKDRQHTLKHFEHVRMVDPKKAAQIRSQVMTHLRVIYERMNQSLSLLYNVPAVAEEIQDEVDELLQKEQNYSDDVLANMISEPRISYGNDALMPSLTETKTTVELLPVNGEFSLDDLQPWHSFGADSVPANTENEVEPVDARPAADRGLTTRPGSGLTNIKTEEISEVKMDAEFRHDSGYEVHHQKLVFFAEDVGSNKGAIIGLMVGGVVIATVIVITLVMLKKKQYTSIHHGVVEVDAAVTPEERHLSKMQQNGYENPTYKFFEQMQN
Sequence of Cholinesterase (P81908 whole entry): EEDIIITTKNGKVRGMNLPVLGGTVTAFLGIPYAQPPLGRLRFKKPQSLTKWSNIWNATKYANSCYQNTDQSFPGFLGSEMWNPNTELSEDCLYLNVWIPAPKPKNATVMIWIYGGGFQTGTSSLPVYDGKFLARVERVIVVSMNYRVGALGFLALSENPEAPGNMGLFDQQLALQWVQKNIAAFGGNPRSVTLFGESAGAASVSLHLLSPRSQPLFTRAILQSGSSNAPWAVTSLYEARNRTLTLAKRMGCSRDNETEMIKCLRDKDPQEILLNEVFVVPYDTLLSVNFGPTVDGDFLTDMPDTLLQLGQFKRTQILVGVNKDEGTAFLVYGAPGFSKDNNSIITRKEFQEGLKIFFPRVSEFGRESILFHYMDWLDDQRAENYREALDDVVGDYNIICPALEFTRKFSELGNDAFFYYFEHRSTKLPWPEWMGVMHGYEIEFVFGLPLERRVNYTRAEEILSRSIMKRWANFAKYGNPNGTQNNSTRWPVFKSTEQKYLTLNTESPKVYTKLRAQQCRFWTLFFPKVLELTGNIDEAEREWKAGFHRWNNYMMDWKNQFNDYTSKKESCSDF
Sequence of Acetylcholinesterase (Torpedo californica) (P04058 22-564 limits assumed): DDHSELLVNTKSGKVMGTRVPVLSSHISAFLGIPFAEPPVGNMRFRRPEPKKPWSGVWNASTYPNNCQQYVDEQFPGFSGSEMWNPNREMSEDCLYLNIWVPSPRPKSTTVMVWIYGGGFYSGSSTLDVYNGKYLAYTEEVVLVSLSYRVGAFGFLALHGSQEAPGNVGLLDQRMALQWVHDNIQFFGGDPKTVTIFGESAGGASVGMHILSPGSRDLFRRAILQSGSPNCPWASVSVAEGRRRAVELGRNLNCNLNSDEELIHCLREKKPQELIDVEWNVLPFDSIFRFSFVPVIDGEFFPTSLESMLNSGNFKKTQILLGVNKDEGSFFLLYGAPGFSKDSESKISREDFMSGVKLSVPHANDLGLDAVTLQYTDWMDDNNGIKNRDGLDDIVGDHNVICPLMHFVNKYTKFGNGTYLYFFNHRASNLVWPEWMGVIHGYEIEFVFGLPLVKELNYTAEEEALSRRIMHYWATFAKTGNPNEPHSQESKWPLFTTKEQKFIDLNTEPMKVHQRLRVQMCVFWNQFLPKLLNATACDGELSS

Row | Compound | inhibition [1] | inhibition [2] | IC50 (Acetylcholinesterase) | IC50 (PC-12) | cytotoxicity at 48 h, 10 µM [3] | Ratio IC50 [4] | IC50 (HepG2) | IC50 (Cholinesterase) | cytotoxicity at 48 h, 10 µM [5] | Activity (Mus musculus [6]) | Activity (Mus musculus [7]) | inhibition [8] | Activity [9] | Time (Mus musculus [10]) | Activity [11] | Activity (Mus musculus [12])
1 | COc1cc(/C=C/C(=O)CC(=O)/C=C/c2ccc(O)c(OC)c2)ccc1O | Active | – | – | – | – | – | – | – | – | – | – | – | – | – | – | –
2 | OCCCCNc1cc(-c2ccccc2)nc2ccccc12 | – | 40.7% | 9.85 µM | > 50 µM | < 5% | 2.3 | > 50 µM | 4.31 µM | < 5% | – | – | – | – | – | – | –
3 | c1ccc(-c2cc(NCCCN3CCOCC3)c3ccccc3n2)cc1 | – | 55.5% | > 10 µM | 35.2 µM | 12.6% | > 2.3 | 30.1 µM | 4.44 µM | 12.7% | – | – | – | – | – | – | –
4 | COc1cc(-c2ccc3c(c2)OCO3)nc2ccccc12 [GRAVEOLININE] | – | 26.9% | 36.3 µM | > 50 µM | < 5% | 1.3 | > 50 µM | 28.2 µM | 8.76% | – | – | – | – | – | – | –
5 | c1ccc2c(NCCCN3CCOCC3)cc(-c3ccc4c(c3)OCO4)nc2c1 | – | 61.6% | 3.22 µM | > 50 µM | < 5% | 0.4 | 17.7 µM | 8.15 µM | < 5% | – | – | – | – | – | – | –
6 | c1ccc2c(N3CCCC3)cc(-c3ccc4c(c3)OCO4)nc2c1 | Active | 62.5% | 0.72 µM | > 50 µM | < 5% | 4.5 | > 50 µM | 0.16 µM | < 5% | Active | Active | Active | Non-Toxic | 48.1 s | Non-Toxic | Active
7 | c1ccc2c(N3CCCCC3)cc(-c3ccc4c(c3)OCO4)nc2c1 | – | 48.5% | > 10 µM | > 50 µM | < 5% | > 4.8 | > 50 µM | 2.09 µM | < 5% | – | – | – | – | – | – | –
8 | CCCCNc1cc(-c2ccc3c(c2)OCO3)nc2ccccc12 | – | 30.6% | 4.8 µM | 46.2 µM | 11.2% | 0.61 | > 50 µM | 7.85 µM | 15.4% | – | – | – | – | – | – | –
9 | c1ccc(-c2cc(NCCCN3CCCCC3)c3ccccc3n2)cc1 | – | 60.3% | > 10 µM | 40.5 µM | 11.6% | > 8.4 | 25.7 µM | 1.19 µM | 24.1% | – | – | – | – | – | – | –
10 | OCCCCCCNc1cc(-c2ccc3c(c2)OCO3)nc2ccccc12 | – | 39.4% | 4.32 µM | > 50 µM | < 5% | 0.67 | > 50 µM | 6.49 µM | < 5% | – | – | – | – | – | – | –
11 | OCCCNc1cc(-c2ccccc2)nc2ccccc12 | – | 36.8% | > 10 µM | > 50 µM | < 5% | – | > 50 µM | > 10 µM | < 5% | – | – | – | – | – | – | –
12 | OCCCCCCNc1cc(-c2ccccc2)nc2ccccc12 | – | 29.2% | 6.22 µM | > 50 µM | < 5% | 2.1 | 44.2 µM | 2.96 µM | 12% | – | – | – | – | – | – | –
13 | OCCCCNc1cc(-c2ccc3c(c2)OCO3)nc2ccccc12 | – | 44.1% | 4.26 µM | 34.3 µM | 14.7% | 0.44 | > 50 µM | 9.78 µM | < 5% | – | – | – | – | – | – | –
14 | OCCCNc1cc(-c2ccc3c(c2)OCO3)nc2ccccc12 | – | 36.6% | 4.23 µM | > 50 µM | 8.38% | < 0.42 | > 50 µM | > 10 µM | < 5% | – | – | – | – | – | – | –
15 | c1ccc(-c2cc(N3CCCC3)c3ccccc3n2)cc1 | – | 57.7% | 3.71 µM | 24.7 µM | 24.2% | 8.6 | 30.9 µM | 0.43 µM | 12.6% | – | – | – | – | – | – | –
16 | c1ccc2c(NCCCN3CCCCC3)cc(-c3ccc4c(c3)OCO4)nc2c1 | – | 65.6% | 4.78 µM | 7.17 µM | 71.5% | 3.3 | 9.21 µM | 1.45 µM | 43.7% | – | – | – | – | – | – | –
